{"source": "patent EP1063290A1", "about": "“NOVEL DICARBONYLREDUCTASE AND GENE ENCODING THE SAME” (TAISHO PHARMACEUTICAL CO., LTD, priority 1998, dated 1999)", "key": {"protein hDCR1": {"target": "protein hDCR1 (Homo sapiens, UniProt Q7Z4W1)", "sequence (Q7Z4W1 whole entry)": "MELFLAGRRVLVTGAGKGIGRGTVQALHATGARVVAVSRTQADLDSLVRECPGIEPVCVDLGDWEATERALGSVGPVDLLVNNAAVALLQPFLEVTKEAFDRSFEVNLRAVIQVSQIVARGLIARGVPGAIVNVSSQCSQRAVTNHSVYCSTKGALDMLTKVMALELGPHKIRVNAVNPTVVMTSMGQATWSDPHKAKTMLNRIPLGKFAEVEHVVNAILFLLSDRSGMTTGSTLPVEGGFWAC", "assay": "Dicarbonyl reductase activity assay: substrate specificity (NAD(P)H oxidation at 340 nm)", "conditions": "against a reference of 100 for diacetyl", "procedure": "(§1) The enzyme activity assay method is not particularly restricted, and it may be based on the activity assay method for mouse carbonyl reductase (CR) (Eur. J. Biochem. 22, 381-387(1995)). The enzyme used here was an expressed recombinant enzyme. • (a) Substrate specificity: In order to determine the substrate specificity, there may be used a hydrocarbon system including various ketone, aldehyde and ester groups, or an aromatic compound.\n(§2) The reaction mixture (total: 2.0 ml) comprised an 80 mM potassium phosphate solution (pH 7.0 or 6.0), 0.1 mM NADPH or NADH and a carbonyl substrate or enzyme (50 µl) (10.1 µg or 3.7 µg of hDCR1).\nThe oxidation rate for NAD(P)H was measured at 340 nm.\nOne unit of enzyme activity was defined as that which catalyzed oxidation of 1 µmol of NAD(P)H in one minute at 25°C."}, "[1]": {"tested_on": "dicarbonyl reductase of the invention", "assay": "Substrate reactivity features summarised from Tables 1, 2 and 3", "assay_type": "biochemical", "conditions": "summary in words of Tables 1, 2 and 3"}, "protein DCR1": {"target": "protein DCR1 (Mus musculus, UniProt Q91X52)", "sequence (Q91X52 whole entry)": "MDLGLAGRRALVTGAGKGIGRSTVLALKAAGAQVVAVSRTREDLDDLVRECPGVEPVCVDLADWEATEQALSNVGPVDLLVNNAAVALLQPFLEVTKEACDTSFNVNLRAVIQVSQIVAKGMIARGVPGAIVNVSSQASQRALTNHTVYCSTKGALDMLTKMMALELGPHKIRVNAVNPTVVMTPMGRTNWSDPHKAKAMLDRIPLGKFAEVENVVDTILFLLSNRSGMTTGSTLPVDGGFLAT", "assay": "Dicarbonyl reductase activity assay: substrate specificity and rate constants (NAD(P)H oxidation at 340 nm)", "conditions": "for substrate ranking (smallest Km values, higher catalyst efficiency Vmax/Km): mouse enzyme, Table 2, result in words", "procedure": "as §1\nas §2, with “• (1) This was assayed under the following conditions. The” for “The”, “glomerin B). The oxidation rate for NAD(P)H was measured at 340 nm.” for “hDCR1).”"}, "[2]": {"target": "T1, hamster liver diacetyl reductase (Hamster DR) (Mesocricetus auratus, UniProt Q91XV4)", "T1 construct": "from tissue; host or cells: hamster liver", "T1 sequence (Q91XV4 whole entry)": "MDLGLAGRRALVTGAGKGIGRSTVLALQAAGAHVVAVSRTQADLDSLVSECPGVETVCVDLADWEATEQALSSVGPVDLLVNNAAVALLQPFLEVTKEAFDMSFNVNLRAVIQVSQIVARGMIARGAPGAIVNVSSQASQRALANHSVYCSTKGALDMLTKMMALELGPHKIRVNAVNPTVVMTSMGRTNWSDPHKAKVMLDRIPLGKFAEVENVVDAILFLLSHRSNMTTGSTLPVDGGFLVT", "assay": "Inhibition of the enzyme reaction", "assay_type": "biochemical", "conditions": "for inhibition at 1000 µM / inhibition at 100 µM: read-out: Inhibition (%) Hamster DR", "text": "(§3) Two enzymes were used here, mouse DCR1 and hamster liver diacetyl reductase (Hamster DR)."}, "mouse DCR1": {"target": "T2, mouse DCR1 (Mus musculus, UniProt Q91X52)", "T2 construct": "made in house; host or cells: E. coli K12", "T2 sequence (Q91X52 whole entry)": "as the sequence (Q91X52 whole entry) above", "assay": "Inhibition of the enzyme reaction", "assay_type": "biochemical", "text": "as §3"}, "[3]": {"target": "T3, dicarbonyl reductase of the invention (Mus musculus, UniProt Q91X52)", "T3 construct": "made in house; host or cells: E. coli K12", "T3 sequence (Q91X52 whole entry)": "as above", "assay": "Effects of metal ions and inhibitors on residual enzyme activity", "assay_type": "biochemical", "conditions": "after treating the enzyme with metals and inhibitors", "procedure": "However, since one of their substrates, NADPH, is degraded at below pH 5, activity assay is not possible in that range when NADPH is used and the peak cannot be determined. The examples were therefore carried out at near pH 7, although the optimum pH is not limited to near 7. • (7) pH stability: For example, DCR1 and hDCR1 are incubated for 3 hours at 25°C in buffer solutions with different pH values, and the residual activity is then measured and compared and recorded as relative activity with respect to the value at pH 8.0 with no incubation. • (8) Effects of metal ions and inhibitors: After treating the enzyme with different metals and inhibitors, the residual activity was evaluated."}, "[4]": {"conditions": "substrate concentration 1,000 μM"}, "[5]": {"conditions": "substrate concentration 1,000 μM, against a reference of 100 for diacetyl"}, "[6]": {"conditions": "compound concentration 1 mM, read-out: Inhibition (%) CDR1"}, "[7]": {"conditions": "compound concentration 0.1 mM, read-out: Inhibition (%) CDR1"}, "[8]": {"conditions": "compound concentration 0.001 mM"}}, "note": "Read-outs that look alike come from different tables or passages of the source."}
{"compound": "O=C(CBr)C(=O)CBr", "note": "[1,4-dibromo-2,3-butanedione]", "values": [{"measurement": "RA (%) relative activity", "setting": "protein hDCR1; [4]", "result": 133, "unit": "%"}, {"measurement": "reactivity (as substrate)", "setting": "[1]", "result": "strong reactivity"}]}
{"compound": "CC(=O)C(=O)c1ccccc1", "note": "[1-Phenyl-1,2-propanedione]", "values": [{"measurement": "substrate ranking (smallest Km values, higher catalyst efficiency Vmax/Km)", "setting": "protein DCR1", "result": "best substrates"}, {"measurement": "RA (%) relative activity", "setting": "protein DCR1; [5]", "result": 148, "unit": "%"}, {"measurement": "RA (%) relative activity", "setting": "protein hDCR1; [4]", "result": 65, "unit": "%"}, {"measurement": "reactivity (as substrate)", "setting": "[1]", "result": "strong reactivity"}]}
{"compound": "CCCCC(=O)C(C)=O", "note": "[2,3-Heptanedione]", "values": [{"measurement": "RA (%) relative activity", "setting": "protein DCR1; [5]", "result": 134, "unit": "%"}, {"measurement": "RA (%) relative activity", "setting": "protein hDCR1; [4]", "result": 174, "unit": "%"}, {"measurement": "reactivity (as substrate)", "setting": "[1]", "result": "strong reactivity"}]}
{"compound": "CCCC(=O)C(C)=O", "note": "[2,3-Hexanedione]", "values": [{"measurement": "RA (%) relative activity", "setting": "protein DCR1; [5]", "result": 108, "unit": "%"}, {"measurement": "RA (%) relative activity", "setting": "protein hDCR1; [4]", "result": 168, "unit": "%"}, {"measurement": "reactivity (as substrate)", "setting": "[1]", "result": "strong reactivity"}]}
{"compound": "CCC(=O)C(C)=O", "note": "[2,3-Pentanedione]", "values": [{"measurement": "RA (%) relative activity", "setting": "protein DCR1", "result": 163, "unit": "%"}, {"measurement": "RA (%) relative activity", "setting": "protein hDCR1; [4]", "result": 167, "unit": "%"}, {"measurement": "reactivity (as substrate)", "setting": "[1]", "result": "strong reactivity"}]}
{"compound": "CCC(=O)C(=O)CC", "note": "[3,4-Hexanedione]", "values": [{"measurement": "substrate ranking (smallest Km values, higher catalyst efficiency Vmax/Km)", "setting": "protein DCR1", "result": "best substrates"}, {"measurement": "RA (%) relative activity", "setting": "protein DCR1; [5]", "result": 232, "unit": "%"}, {"measurement": "RA (%) relative activity", "setting": "protein hDCR1; [4]", "result": 170, "unit": "%"}, {"measurement": "reactivity (as substrate)", "setting": "[1]", "result": "strong reactivity"}]}
{"compound": "NC(=O)c1ccc(O)cc1", "note": "[4-Hydroxybenzamide]", "values": [{"measurement": "inhibition at 1000 µM", "setting": "[2]", "result": 19, "unit": "%"}, {"measurement": "inhibition at 1000 µM", "setting": "mouse DCR1; read-out: Inhibition (%) CDR1", "result": 44, "unit": "%"}]}
{"compound": "O=C1C(=O)c2cccc3cccc1c23", "note": "[Acenaphthenequinone]", "values": [{"measurement": "RA (%) relative activity", "setting": "protein DCR1; substrate concentration 25 μM, against a reference of 100 for diacetyl", "result": 14.1, "unit": "%"}, {"measurement": "RA (%) relative activity", "setting": "protein hDCR1; substrate concentration 25 μM", "result": 181, "unit": "%"}, {"measurement": "reactivity (as substrate)", "setting": "[1]", "result": "strong reactivity"}]}
{"compound": "Nc1ccccc1C(=O)O", "note": "[Anthranilic acid]", "values": [{"measurement": "inhibition at 100 µM", "setting": "[2]", "result": 42, "unit": "%"}, {"measurement": "inhibition at 100 µM", "setting": "mouse DCR1; read-out: Inhibition (%) CDR1", "result": 0, "unit": "%"}]}
{"compound": "CCC1(CC)C(=O)NC(=O)NC1=O", "note": "[Barbital]", "values": [{"measurement": "inhibition at 1000 µM", "setting": "[2]", "result": 5, "unit": "%"}, {"measurement": "inhibition at 1000 µM", "setting": "mouse DCR1; read-out: Inhibition (%) CDR1", "result": 0, "unit": "%"}]}
{"compound": "NC(=O)c1ccccc1", "note": "[Benzamide]", "values": [{"measurement": "inhibition at 1000 µM", "setting": "[2]; compound concentration 1 mM", "result": 43, "unit": "%"}, {"measurement": "inhibition at 1000 µM", "setting": "mouse DCR1; [6]", "result": 18, "unit": "%"}]}
{"compound": "O=C(O)c1ccccc1", "note": "[Benzoic acid]", "values": [{"measurement": "inhibition at 100 µM", "setting": "[2]", "result": 59, "unit": "%"}, {"measurement": "inhibition at 100 µM", "setting": "mouse DCR1; read-out: Inhibition (%) CDR1", "result": 32, "unit": "%"}]}
{"compound": "[Ca+2].[Cl-].[Cl-]", "note": "[CaCl2]", "values": [{"measurement": "effect on the enzyme (residual activity)", "setting": "[3]", "result": "virtually no effect"}]}
{"compound": "O=C1NC(=O)C(c2ccccc2)(c2ccccc2)N1", "note": "[Diphenlhydantoin]", "values": [{"measurement": "inhibition at 100 µM", "setting": "[2]", "result": 2, "unit": "%"}, {"measurement": "inhibition at 100 µM", "setting": "mouse DCR1; read-out: Inhibition (%) CDR1", "result": 17, "unit": "%"}]}
{"compound": "C=C(CC)C(=O)c1ccc(OCC(=O)O)c(Cl)c1Cl", "note": "[Ethacrynic acid]", "values": [{"measurement": "inhibition at 100 µM", "setting": "[2]; compound concentration 0.1 mM", "result": 3, "unit": "%"}, {"measurement": "inhibition at 100 µM", "setting": "mouse DCR1; [7]", "result": 0, "unit": "%"}]}
{"compound": "O=C1Nc2ccccc2C1=O", "note": "[Isatin]", "values": [{"measurement": "RA (%) relative activity", "setting": "protein DCR1; substrate concentration 400 μM, against a reference of 100 for diacetyl", "result": 106.7, "unit": "%"}, {"measurement": "RA (%) relative activity", "setting": "protein hDCR1; substrate concentration 500 μM", "result": 252, "unit": "%"}, {"measurement": "reactivity (as substrate)", "setting": "[1]", "result": "strong reactivity"}]}
{"compound": "CC(C)CN", "note": "[Isobutylamine]", "values": [{"measurement": "inhibition at 1000 µM", "setting": "[2]; compound concentration 1 mM", "result": 50, "unit": "%"}, {"measurement": "inhibition at 1000 µM", "setting": "mouse DCR1; [6]", "result": 16, "unit": "%"}]}
{"compound": "O=C(O)c1ccncc1", "note": "[Isonicotinic acid]", "values": [{"measurement": "inhibition at 100 µM", "setting": "[2]; compound concentration 0.1 mM", "result": 4, "unit": "%"}, {"measurement": "inhibition at 100 µM", "setting": "mouse DCR1; [7]", "result": 0, "unit": "%"}]}
{"compound": "[Cl-].[Cl-].[Mg+2]", "note": "[MgCl2]", "values": [{"measurement": "effect on the enzyme (residual activity)", "setting": "[3]", "result": "virtually no effect"}]}
{"compound": "c1cn[nH]c1", "note": "[Pyrazole]", "values": [{"measurement": "inhibition at 10000 µM", "setting": "[2]; compound concentration 10 mM", "result": 5, "unit": "%"}, {"measurement": "inhibition at 10000 µM", "setting": "mouse DCR1; compound concentration 10 mM, read-out: Inhibition (%) CDR1", "result": 29, "unit": "%"}]}
{"compound": "COC(=O)C(C)=O", "note": "[Pyruvic acid methyl ester]", "values": [{"measurement": "RA (%) relative activity", "setting": "protein DCR1; [5]", "result": 23.3, "unit": "%"}, {"measurement": "RA (%) relative activity", "setting": "protein hDCR1; [4]", "result": 46, "unit": "%"}]}
{"compound": "O=c1c(O)c(-c2ccc(O)c(O)c2)oc2cc(O)cc(O)c12", "note": "[Quercitin]", "values": [{"measurement": "inhibition at 100 µM", "setting": "[2]; compound concentration 0.1 mM", "result": 33, "unit": "%"}, {"measurement": "inhibition at 100 µM", "setting": "mouse DCR1; [7]", "result": 50, "unit": "%"}]}
{"compound": "O=C(O)CC1(CC(=O)O)CCCC1", "note": "[Tetramethyleneglutaric acid]", "values": [{"measurement": "inhibition at 100 µM", "setting": "[2]", "result": 63, "unit": "%"}, {"measurement": "inhibition at 100 µM", "setting": "mouse DCR1; read-out: Inhibition (%) CDR1", "result": 0, "unit": "%"}]}
{"compound": "c1cnc2c(c1)ccc1cccnc12", "note": "[o-Phenanthroline]", "values": [{"measurement": "inhibition at 1000 µM", "setting": "[2]", "result": 0, "unit": "%"}, {"measurement": "inhibition at 1000 µM", "setting": "mouse DCR1; read-out: Inhibition (%) CDR1", "result": 8, "unit": "%"}]}
{"compound": "Cibacron blue dye", "values": [{"measurement": "Inhibition (%) Hamster DR", "setting": "[2]; [8]", "result": 18, "unit": "%"}, {"measurement": "Inhibition (%) CDR1", "setting": "mouse DCR1; [8]", "result": 21, "unit": "%"}]}
